Assay [1] relates to SPI-4 encoded T1SS (SiiE). Briefly: SiiE-HiBiT cell surface retention assay. In kind it is cell-based, S. Typhimurium. The method, then:
HiBiT was inserted chromosomally into SiiE at position K5411, using the suicide plasmid pMIB8021 (pSB890-siiE::K5411HiBiT). Bacteria were grown for 5 hours under SPI-4–inducing conditions (LB supplemented with 0.3 M NaCl). OD units of 0.5 were harvested at 10,000g for 2 min at 4°C. Cell pellets were washed twice with cold PBS and then resuspended to a final concentration of 0.5 OD units. Twenty-five microliters from the bacterial suspension was transferred into a 384-well plate. The Nano-Glo HiBiT Extracellular Buffer and corresponding substrate were prepared according to the manufacturer’s instructions. Twenty-five microliters of the Nano-Glo HiBiT Extracellular buffer-substrate mix was added to each sample and then incubated at r.t. for 10 min. Luminescence was measured with a Tecan Spark microplate reader.

In assay [2] the test system is S. Typhimurium invasion of MDCK cells. In words: Invasion assay into MDCK cells. The note with it: C26 100 μM, MOI 5; DMSO control 6.85. The class given is cell-based. The method, then:
MDCK (NBL-2) cells were seeded in a 24-well plate at a density of 10^5 cells per well in 1 ml of MEM (Gibco) and grown for 5 to 6 days, to allow polarization. Cells were washed every 2 days with fresh medium. After 5 days, each well contained ~1.8 × 10^6 MDCK cells. Bacteria were grown as for the invasion assay of HeLa cells and diluted to obtain an MOI of 5. The plate was centrifuged for 3 min at 300g to synchronize the infection and then incubated for 25 min at 37°C and 5% (v/v) CO2 to allow Salmonella invasion into MDCK cells. The quantification of invasiveness was carried out as described above for HeLa cells.

The next assay concerns HilD variants. Briefly: Plasmid-based whole-cell assay, most frequent HilD substitutions. The conditions noted are these: C26 100 μM, 19 functional variants. Set-up: species or system S. enterica. Here is the method: The retrieved sequences and script used to determine the most frequent point mutations in HilD can be accessed on the Zenodo repository. Site-directed mutagenesis was performed using KOD polymerase (Novagen). PhilA activation was monitored as described above using the plasmid-based whole-cell fluorescence assay.

The test system of assay [3] is T3SS-2 (SseF-HiBiT secretion). In words: SseF-HiBiT injection assay in LgBiT-expressing RAW 264.7 macrophages. In kind it is cell-based, S. Typhimurium. The conditions noted are these: C26 100 μM, inside RAW 264.7 macrophages, 7 hours after infection, MOI 10. The method, then:
SseF injection assay was performed using the split-Nanoluc (HiBiT/LgBiT) system as described for SipA. In a white 96-well plate (NUNC) with optical bottom, 10^4 LgBiT-expressing RAW 264.7 macrophages ([65]) were seeded in 100 μl of DMEM, 24 hours before the infection. The strain harboring the plasmid-encoded sseF-HiBiT and the isogenic strain ΔssaV were grown in LB-NaCl at 37°C at 180 rpm until an OD600 of 0.9. Bacteria were washed twice with HBSS (Serva) and then used to infect preseeded cells on a 96-well plate with an MOI of 10. The plate was centrifuged at 300g for 3 min and then incubated for 30 min to allow invasion. Afterward, macrophages were washed with DMEM and incubated for 1 hour in DMEM supplemented with gentamicin (100 μg/ml) to eliminate noninvading bacteria. The medium was replaced by DMEM with gentamicin (16 μg/ml), supplemented with either DMSO (1%) or C26 at different concentrations. Cells were incubated at 37°C with 5% (v/v) CO2 for 5.5 hours (total infection time of 7 hours) and then washed twice with 1x PBS before luminescence measurements were carried out following the manufacturer’s instructions.

Another assay addresses T1, HilD (Salmonella typhimurium, UniProt P0CL08).
T1 construct: His6-SUMO (N, cleaved yes); made in house; host or cells: E. coli C41(DE3)
Briefly: SEC-MALS of HilD. Set-up: species or system S. Typhimurium. The method, then:
SEC-MALS experiments were performed using a Superdex 75 Increase 10/300 GL column (Cytiva) coupled to a miniDAWN Tristar Laser photometer (Wyatt) and a RI-2031 differential refractometer (JASCO). HilD (100 μM) was incubated with 1% (v/v) of either DMSO or C26 (10 mM dissolved in DMSO) for 20 min at r.t. Fifty microliters of HilD samples was loaded onto the SEC column, equilibrated with SEC buffer, and separated using a flow rate of 0.5 ml min^−1. Data analysis was carried out with the ASTRA v7.3.0.18 software (Wyatt).

The next assay deals with T3SS-1 (SipA secretion). In words: SipA-NLuc secretion assay (NanoLuc luciferase). In kind it is cell-based, S. Typhimurium. The conditions noted are these: Salmonella enterica, read-out: IC50 SipA secretion.
The target of another assay is T2, HilC (Salmonella typhimurium, UniProt E1WAB2).
T2 construct: His6 followed by TEV protease cleavage site (N, cleaved yes); made in house; host or cells: E. coli C41(DE3)
T2 sequence (E1WAB2 whole entry): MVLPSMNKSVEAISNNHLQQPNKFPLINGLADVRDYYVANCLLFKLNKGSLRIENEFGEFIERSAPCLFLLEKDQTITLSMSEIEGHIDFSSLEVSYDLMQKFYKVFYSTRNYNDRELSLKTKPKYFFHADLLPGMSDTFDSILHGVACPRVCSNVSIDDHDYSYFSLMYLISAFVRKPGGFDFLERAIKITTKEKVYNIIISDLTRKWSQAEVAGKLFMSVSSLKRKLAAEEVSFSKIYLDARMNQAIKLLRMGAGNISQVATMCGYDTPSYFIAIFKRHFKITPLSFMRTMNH
Briefly: EMSA, binding to hilA promoter, HilC. The class given is biochemical, S. Typhimurium. Here is the method:
EMSAs were performed similarly to as described previously ([39]) using a 62–base pair double-stranded (dsDNA) fragment of the hilA promoter, encompassing the A1 binding site ([82]). dsDNA fragments were generated by melting the complementary primers PhilA_A1_f / PhilA_A1_r (table S10) together in TE buffer [10 mM Tris (pH 8.0) and 1 mM EDTA] at 95°C for 10 min before slowly cooling to r.t. The forward primer was modified with a 5′-Cy5 fluorescent dye for detection. The protein (600 nM) was incubated with 50 nM labeled DNA in EMSA buffer [20 mM Tris (pH 8.0), 100 mM KCl, 100 μM EDTA, and 3% glycerol]. C26 was diluted first in DMSO and subsequently 1:100 into the protein-DNA sample. Samples were incubated at 37°C for 15 min, supplemented with diluted DNA loading dye, and separated on a 1.5-mm-thick, 6% (w/v) TBE polyacrylamide gel at 6°C at a constant voltage of 100 V. Gels were imaged using a ChemiDocMP imaging system (Bio-Rad).

T1 sequence (P0CL08 whole entry): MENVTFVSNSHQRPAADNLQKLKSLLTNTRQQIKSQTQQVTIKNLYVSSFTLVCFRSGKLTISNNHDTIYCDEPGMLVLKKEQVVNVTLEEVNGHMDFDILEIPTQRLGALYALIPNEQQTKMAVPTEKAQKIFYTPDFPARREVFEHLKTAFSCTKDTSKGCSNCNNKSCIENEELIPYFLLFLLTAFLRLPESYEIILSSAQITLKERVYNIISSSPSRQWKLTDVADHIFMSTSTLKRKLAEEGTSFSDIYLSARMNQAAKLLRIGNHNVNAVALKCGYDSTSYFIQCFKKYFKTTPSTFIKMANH
Experimental for T3SS-1 (SipA secretion): (A) NanoLuc Luciferase assay to screen T3SS-1 inhibitors in 384-well plates. Compounds were screened at a final concentration of 100 μM (N = 3 replicates). Cultures with strains sipA-NLuc and ΔinvA, sipA-NLuc with 1% (v/v) DMSO were used as positive and negative controls, respectively. […] 100% relative SipA secretion corresponds to the luminescence intensity of the WT strain grown in the presence of 1% (v/v) DMSO. The relative SipA secretion of the ∆invA mutant was considered as the bottom (N = 2 technical replicates within N = 3 biological replicates).
For compound screening, 50 μl of overnight cultures of Salmonella with an approximate optical density at 600 nm (OD600) of 2 were diluted in fresh LB medium to an OD600 of 0.05 and added to 384-well plates (Nunc MaxiSorp, white) containing 5 nmol of screening compound per well, for a final compound concentration of 100 μM. The plates were incubated for 5 hours at 37°C with shaking at 180 rpm, upon which the bacteria were removed. The plates were washed with phosphate-buffered saline (PBS) [137 mM NaCl, 2.7 mM KCl, 10 mM Na2HPO4, and 1.8 mM KH2PO4 (pH 7.4)] using a Tecan HydroSpeed plate washer. Residual PBS after washing was removed, and 50 μl of NanoLuc working solution (NanoGlo, Promega) was added to the wells. Luminescence was then measured using a Tecan Sparc Multimode reader. […]

For `CN(CC(=O)NCc1ccc2c(c1)OCO2)Cc1ccc(Br)s1` [C26, N-(benzo[d][1,3]dioxol-5-ylmethyl)-2-{[(5-bromothiophen-2-yl)methyl](methyl)amino}acetamide], the “SiiE-HiBiT retained on the bacterial cell surface” value in assay [1] is recorded as “reduced in a dose-dependent manner”. For the same compound, in assay [2], the “Invasion of MDCK cells (%), of the original inoculum” value stood at 1.6%. Also, the “activity on the most frequent HilD substitution variants” value in the assay on HilD variants is given as “inhibitory activity on all the tested variants at a level similar to that of the WT reference sequence”. Also, in assay [3], the “SseF-HiBiT secretion, % of the control” value was determined as 37%. The “Molecular Mass of HilD, Measured” value on HilD (HilD + C26 100 μM, theoretical dimer 70.4) turned out to be 69.8 kDa. The “oligomerization state of HilD” value on HilD (equimolar C26 (100 μM)) is recorded as “no effect on the oligomerization state”. The IC50 in the assay on T3SS-1 (SipA secretion) came to 29.2 µM. For the same compound, at HilC, the “DNA binding activity of HilC (hilA promoter)” value was “no effect”.

Source of the values: paper PMC11988454, “Discovery of synthetic small molecules targeting the central regulator of Salmonella pathogenicity” (Science Advances, 2025).
